The values below come from ChEMBL document CHEMBL1201862, “PubChem BioAssay data set” (2004).

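1) Cells in 96-well plates. 2) Compound, 48 h, 5 concentrations. 3) Linear interpolation between surrounding doses. 4) Unreached endpoint = highest concentration. GI50 = concentration required for 50% inhibition of growth.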 Activity calls are given as the source filed them. Cut-off read from the data, not from the text of the source: active = GI50 up to about 1.1 µM and inactive = higher.

What all share (experiment): NCI tumour cell line growth inhibition, 48 h
The test system of experiment [1] is HCT-15.
Experiment [2] deals with NCI-H23.
Experiment [3] has as its system HL-60.
In experiment [4] the test system is EKVX.
The subject of experiment [5] is CCRF-CEM.
In experiment [6] the test system is SN12C.
The test system of experiment [7] is CAKI-1.
In experiment [8] the test system is SR.
Experiment [9] has as its system OVCAR-5.
For experiment [10], the system named is 786-0.
For experiment [11], the system named is M14.
The test system of experiment [12] is SNB-19.
Experiment [13] concerns HT-29.
Experiment [14] concerns NCI-H226.
For experiment [15], the system named is SK-OV-3.
Experiment [16] has as its system HOP-92.
The subject of experiment [17] is SF-268.
Experiment [18] relates to SK-MEL-5.
The test system of experiment [19] is HCC 2998.
For experiment [20], the system named is NCI-H460.

For `N#CSC#CCCC#CSC#N`, the GI50 is 18.2 µM in [1]; 20.6 µM (inactive) in [2]; > 100 µM (inactive) in experiment [3]; 17.7 µM (inactive) in experiment [4]; 3.1 µM (inactive) in [5]; 17.7 µM (inactive) in [6]. In addition, the GI50 in [7] was 19 µM (inactive); in [8], 7.21 µM (inactive); in experiment [9], 20.6 µM (inactive); in experiment [10] it was 20.3 µM (inactive); in experiment [11], 12.9 µM (inactive); in experiment [12], 15.5 µM (inactive). Moreover, the GI50 in experiment [13] was 21.3 µM (inactive); in experiment [14], 25.1 µM (inactive); in experiment [15] it was 16.1 µM (inactive); in experiment [16], 17.5 µM (inactive); in [17] it was 30.1 µM (inactive); in [18], 18.2 µM (inactive). The GI50 was 17.5 µM (inactive) in experiment [19] and 22.2 µM (inactive) in [20].

Regarding `CCOC(=O)c1ccc(NCc2ccc3oc(=O)c(-c4ccccc4)nc3c2)cc1`, the GI50 in [1] was 81.5 µM; in experiment [2], 19.1 µM (inactive); in [3], 3.94 µM (inactive); in [4] it was 52.8 µM (inactive); in [5], 3.46 µM (inactive); in experiment [6] it was > 100 µM (inactive). Besides, the GI50 is 5.2 µM (inactive) in experiment [7]; 34.9 µM (inactive) in experiment [8]; > 100 µM (inactive) in [9]; 34.5 µM (inactive) in experiment [10]; 31.3 µM (inactive) in experiment [11]; > 100 µM (inactive) in experiment [12]. The GI50 was 57.4 µM (inactive) in experiment [13]; 94.2 µM (inactive) in [14]; > 100 µM (inactive) in [15]; 31.2 µM (inactive) in experiment [16]; 64.1 µM (inactive) in experiment [17]; 23.6 µM (inactive) in experiment [18]. The GI50 in [19] and in experiment [20] was > 100 µM (inactive) throughout.

In the case of `COc1cc2c(c(OC)c1OC)-c1ccc(SC)c(=O)cc1C(CC(=O)Oc1cccc(F)c1)C2` (stereo not given), the GI50 is 0.22 µM in experiment [1]; 0.259 µM (active) in experiment [2]; 0.0906 µM (active) in experiment [3]; 2.62 µM (inactive) in experiment [4]; 0.228 µM (active) in [5]; 0.222 µM (active) in experiment [6]. In addition, the GI50 in experiment [7] was 1.35 µM (inactive); in [8], 0.0542 µM (active); in [9], 4.55 µM (inactive); in [10] it was 0.114 µM (active); in experiment [11] it was 0.242 µM (active); in [12] it was 0.667 µM (active). Moreover, the GI50 in experiment [13] was 0.184 µM (active); in experiment [14], 0.184 µM (active); in experiment [15] it was 0.0385 µM (active); in experiment [16] it was 1.24 µM (inactive); in [17], 0.653 µM (active); in experiment [18], 0.411 µM (active). The figures for the GI50 in [19] and in experiment [20] were 0.111 µM (active) and 0.212 µM (active), respectively.

As for `CCc1nc(N)nc(N)c1-c1ccc(Cl)cc1` [PYRIMETHAMINE], the GI50 in experiment [1] is 3.94 µM; in experiment [2], 5.79 µM (inactive); in experiment [3] it was 2.38 µM (inactive); in [4], 7.55 µM (inactive); in experiment [5], 3.33 µM (inactive); in [6] it was 3.33 µM (inactive). Further, the GI50 in experiment [7] was 71.9 µM (inactive); in experiment [8], 4.24 µM (inactive); in [9], > 60 µM (inactive); in experiment [10], 4.59 µM (inactive); in experiment [11], 5.71 µM (inactive); in experiment [12], 32.8 µM (inactive). The GI50 in experiment [13] is 4.25 µM (inactive); in [14], 42.6 µM (inactive); in experiment [15] it was 74.3 µM (inactive); in experiment [16], 21.3 µM (inactive); in experiment [17], 9.77 µM (inactive); in experiment [18] it was 2.48 µM (inactive). Also, the GI50 in experiment [19] was 6.25 µM (inactive); in [20], 2.79 µM (inactive).

Turning to `COc1ccc(/C=N/N=C(\N)NO)cc1OC`, the GI50 in experiment [1] was 75.2 µM; in [2], > 100 µM (inactive); in experiment [3], 63.1 µM (inactive); in [4] it was 26.2 µM (inactive); in [5], 49.7 µM (inactive); in experiment [6], 45.8 µM (inactive). Moreover, the GI50 in [7] is 29.5 µM (inactive); in experiment [8] it was 24.9 µM (inactive); in [9] it was 63 µM (inactive); in [10] it was 31 µM (inactive); in experiment [11], 27.9 µM (inactive); in experiment [12], > 100 µM (inactive). Besides, the GI50 in [13] was 28.7 µM (inactive); in experiment [14] it was 28.1 µM (inactive); in experiment [15], 45.1 µM (inactive); in experiment [16], 84.7 µM (inactive); in experiment [17], 20.4 µM (inactive); in experiment [18], 15.2 µM (inactive). The GI50 in experiment [19] is > 100 µM (inactive); in [20] it was 33.7 µM (inactive).

As to `Cc1ccc(C(=O)Nc2ccc(S(=O)(=O)O)c3cc(S(=O)(=O)O)cc(S(=O)(=O)O)c23)cc1NC(=O)c1cccc(NC(=O)Nc2cccc(C(=O)Nc3cc(C(=O)Nc4ccc(S(=O)(=O)O)c5cc(S(=O)(=O)O)cc(S(=O)(=O)O)c45)ccc3C)c2)c1` [SURAMIN], the GI50 in [1] was 90.8 µM; in experiment [2], 68.9 µM (inactive); in [3], 49.4 µM (inactive); in [4], > 69.5 µM (inactive); in experiment [5], > 100 µM (inactive); in [6] it was > 80.9 µM (inactive). Also, the GI50 in experiment [7] is 73.5 µM (inactive); in experiment [8], 69.3 µM (inactive); in [9], > 50.6 µM (inactive); in experiment [10] it was 74.6 µM (inactive); in experiment [11] it was 74.8 µM (inactive); in experiment [12] it was > 100 µM (inactive). Moreover, the GI50 in experiment [13] is 62.4 µM (inactive); in [14], > 63.8 µM (inactive); in [15] it was > 88.1 µM (inactive); in [16], 54.5 µM (inactive); in [17], 66.2 µM (inactive); in [18] it was > 84.7 µM (inactive). For the same compound, the GI50 in experiment [19] is > 100 µM (inactive); in experiment [20], > 80.5 µM (inactive).

On to `C[C@H](OCc1ccccc1)C(=O)N1CCS(=O)(=O)N2CCC[C@H]2C1=O`, for which the GI50 in experiment [1] is greater than 100 µM; in experiment [2], > 100 µM (inactive); in [3], > 100 µM (inactive); in experiment [4], > 100 µM (inactive); in experiment [5] it was > 100 µM (inactive); in experiment [6] it was > 100 µM (inactive). The GI50 in experiment [7], in experiment [8], in experiment [9], in [10], in [11] and in experiment [12] was > 100 µM (inactive) in each case. For the same compound, the GI50 in [13], in [14], in experiment [15], in experiment [16], in experiment [17] and in experiment [18] was > 100 µM (inactive) in each case. Also, the GI50 in experiment [19] and in experiment [20] was > 100 µM (inactive) in each case.

With `Cc1ccc2[nH]c3c(c2c1)C1CCC(C(C)(C)C)CC1C1C(=O)N(c2ccc4c(c2)OCO4)C(=O)C31` (stereo not given), the GI50 in experiment [1] is 5.21 µM; in [2], 6.55 µM (inactive); in experiment [3] it was 2.72 µM (inactive); in [4], 3.57 µM (inactive); in [5] it was 1.82 µM (inactive); in experiment [6], 2.24 µM (inactive). Further, the GI50 in experiment [7] was 2.3 µM (inactive); in experiment [8], 1.91 µM (inactive); in experiment [9], 3.61 µM (inactive); in [10], 1.63 µM (inactive); in experiment [11] it was 4.7 µM (inactive); in [12], 2.64 µM (inactive). Besides, the GI50 in experiment [13] was 4.51 µM (inactive); in [14], 2.84 µM (inactive); in [15] it was 2.58 µM (inactive); in experiment [16], 2.24 µM (inactive); in experiment [17], 2.03 µM (inactive); in [18], 8.15 µM (inactive). In addition, the GI50 in [19] is 2.38 µM (inactive); in experiment [20], 1.78 µM (inactive).

For the compound `CCN(CC)c1ccc2c(c1)N=C1N=CC=CN1C2(c1ccc(N(C)C)cc1)c1ccc(N(C)C)cc1`, the GI50 in [1] is 10.9 µM; in experiment [2] it was 6.95 µM (inactive); in [3], 1.43 µM (inactive); in experiment [4] it was 9.73 µM (inactive); in experiment [5], 8.55 µM (inactive); in experiment [6] it was 5.27 µM (inactive). In addition, the GI50 was 11.1 µM (inactive) in experiment [7]; 3.61 µM (inactive) in experiment [8]; 13.3 µM (inactive) in [9]; 7.73 µM (inactive) in experiment [10]; 3.32 µM (inactive) in experiment [11]; 11.4 µM (inactive) in experiment [12]. Besides, the GI50 in [13] is 3.12 µM (inactive); in [14] it was 10.8 µM (inactive); in experiment [15] it was 2.61 µM (inactive); in experiment [16], 2.82 µM (inactive); in experiment [17], 11 µM (inactive); in experiment [18], 11.9 µM (inactive). Moreover, the values for the GI50 in [19] and in experiment [20] were 3.24 µM (inactive) and 5.62 µM (inactive), respectively.

Turning to `CN(C)c1cccc2c(S(=O)(=O)NCCCNCCN)cccc12`, the GI50 in [1] is greater than 100 µM; in experiment [2], 82.4 µM (inactive); in experiment [3] it was 26.1 µM (inactive); in experiment [4], > 100 µM (inactive); in [5], 22.3 µM (inactive); in experiment [6], 78 µM (inactive). Besides, the GI50 in experiment [7] is > 100 µM (inactive); in [8] it was 19.1 µM (inactive); in experiment [9], 38.1 µM (inactive); in experiment [10], 53.1 µM (inactive); in [11], 18.9 µM (inactive); in experiment [12], > 100 µM (inactive). The GI50 in [13] was 25.9 µM (inactive); in experiment [14], 64.6 µM (inactive); in experiment [15], 46.9 µM (inactive); in experiment [16], 34.4 µM (inactive); in experiment [17] it was 65.6 µM (inactive); in [18], 20.8 µM (inactive). In addition, the GI50 in experiment [19] was 24 µM (inactive); in experiment [20] it was 62.4 µM (inactive).
